Data: ChEMBL document CHEMBL1201862, “PubChem BioAssay data set” (2004)
Activity calls are given as the source filed them.

Columns and labels:
[1] = target: Intestinal-type alkaline phosphatase (Mus musculus, UniProt P24822); test: mouse intestinal alkaline phosphatase activators, dose response, biochemical, luminescence, uHTS hits (AID 488783); type: functional
[2] = target: T1, Alkaline phosphatase, tissue-nonspecific isozyme (Homo sapiens, UniProt P05186); test: potency against alkaline phosphatase TNAP – biochemical, luminescent, dose response, SAR follow-up (AID 1056)
T1 sequence (P05186 whole entry): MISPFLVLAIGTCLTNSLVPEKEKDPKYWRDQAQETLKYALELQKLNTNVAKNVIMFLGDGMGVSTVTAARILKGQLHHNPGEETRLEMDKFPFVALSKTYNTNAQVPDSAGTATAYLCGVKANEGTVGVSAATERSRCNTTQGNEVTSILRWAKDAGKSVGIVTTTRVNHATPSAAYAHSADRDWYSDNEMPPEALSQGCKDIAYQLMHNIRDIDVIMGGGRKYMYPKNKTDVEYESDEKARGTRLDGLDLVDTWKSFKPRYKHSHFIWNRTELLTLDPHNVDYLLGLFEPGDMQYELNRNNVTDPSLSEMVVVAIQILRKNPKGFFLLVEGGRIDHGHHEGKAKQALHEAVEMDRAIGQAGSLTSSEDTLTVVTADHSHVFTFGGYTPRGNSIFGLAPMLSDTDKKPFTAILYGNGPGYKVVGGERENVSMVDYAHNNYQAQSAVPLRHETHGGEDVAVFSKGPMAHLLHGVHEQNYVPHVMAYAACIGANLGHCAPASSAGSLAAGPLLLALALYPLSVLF

[3] = target: T2, RNA-binding protein pos-1 (Caenorhabditis elegans, UniProt G5EF15); test: disruptors of C. elegans POS-1 RNA interaction – biochemical, fluorescence polarization, dose response (AID 1964);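 note: purified POS-1 fused to maltose binding protein made in E. coli; potency of compounds blocking POS-1 binding to fluorescent RNA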
T2 sequence (G5EF15 whole entry): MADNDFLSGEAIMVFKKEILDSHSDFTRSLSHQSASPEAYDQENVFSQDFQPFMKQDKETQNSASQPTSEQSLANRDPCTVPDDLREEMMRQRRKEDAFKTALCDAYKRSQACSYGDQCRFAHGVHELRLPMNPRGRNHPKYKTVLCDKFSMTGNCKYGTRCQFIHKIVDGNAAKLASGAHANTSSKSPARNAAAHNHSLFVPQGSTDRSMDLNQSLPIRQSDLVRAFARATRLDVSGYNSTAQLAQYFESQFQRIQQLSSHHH

[4] = target: Intestinal-type alkaline phosphatase (Homo sapiens, UniProt P09923); test: activation of human intestinal alkaline phosphatase – biochemical, dose response (AID 488873); type: functional
[5] = target: T1, Alkaline phosphatase, tissue-nonspecific isozyme; test: activation of tissue-nonspecific alkaline phosphatase – biochemical, TNAP isozyme, mouse IAP uHTS hits, selectivity assay for mouse IAP activator project, dose response (AID 488880); type: functional
[6] = target: T3, Zinc finger protein mex-5 (Caenorhabditis elegans, UniProt Q9XUB2); test: potency of MEX-5 RNA-binding blockers – biochemical, C. elegans, fluorescence polarization, dose response (AID 1960)
T3 sequence (Q9XUB2 whole entry): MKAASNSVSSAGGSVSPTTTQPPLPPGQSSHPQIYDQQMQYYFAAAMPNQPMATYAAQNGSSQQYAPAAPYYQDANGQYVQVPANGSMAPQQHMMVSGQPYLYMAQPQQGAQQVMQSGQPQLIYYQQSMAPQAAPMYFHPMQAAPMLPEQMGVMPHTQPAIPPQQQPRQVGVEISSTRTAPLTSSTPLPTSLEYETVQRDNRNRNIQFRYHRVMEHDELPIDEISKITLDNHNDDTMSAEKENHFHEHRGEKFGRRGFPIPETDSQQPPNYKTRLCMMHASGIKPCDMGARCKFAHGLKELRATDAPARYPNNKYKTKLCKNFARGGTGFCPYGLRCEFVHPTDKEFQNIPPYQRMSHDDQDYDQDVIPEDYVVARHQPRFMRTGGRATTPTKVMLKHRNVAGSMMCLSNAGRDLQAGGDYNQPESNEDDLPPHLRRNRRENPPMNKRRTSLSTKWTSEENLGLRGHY

Bcl-2-related protein A1 = Bcl-2-related protein A1 (Mus musculus, UniProt Q07440); type: functional;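 note: confirmatory dose–response counterscreen on Bfl-1, used to check hits from a UBC13 polyubiquitin inhibitor campaign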
cells = type: functional
[7] = THP-1 cell cytotoxicity, dose response, cytotoxicity control for non-replicating M. tuberculosis project (AID 489025); type: functional
[8] = target: T4, Ubiquitin-conjugating enzyme E2 N (Homo sapiens, UniProt P61088); type: functional
T4 sequence (P61088 whole entry): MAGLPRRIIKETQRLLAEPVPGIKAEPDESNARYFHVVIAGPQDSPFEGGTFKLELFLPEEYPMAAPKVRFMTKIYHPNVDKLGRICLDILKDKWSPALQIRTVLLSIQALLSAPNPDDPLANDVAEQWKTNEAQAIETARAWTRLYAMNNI

[9] = target: T4, Ubiquitin-conjugating enzyme E2 N; type: functional; remark: listed apart in the source
[10] = target: T5, High affinity choline transporter 1 (Homo sapiens, UniProt Q9GZV3); test: human choline transporter blockers, potency – cell-based, 5-point CRC, membrane potential dye, dose response (AID 504840); type: functional
T5 sequence (Q9GZV3 whole entry): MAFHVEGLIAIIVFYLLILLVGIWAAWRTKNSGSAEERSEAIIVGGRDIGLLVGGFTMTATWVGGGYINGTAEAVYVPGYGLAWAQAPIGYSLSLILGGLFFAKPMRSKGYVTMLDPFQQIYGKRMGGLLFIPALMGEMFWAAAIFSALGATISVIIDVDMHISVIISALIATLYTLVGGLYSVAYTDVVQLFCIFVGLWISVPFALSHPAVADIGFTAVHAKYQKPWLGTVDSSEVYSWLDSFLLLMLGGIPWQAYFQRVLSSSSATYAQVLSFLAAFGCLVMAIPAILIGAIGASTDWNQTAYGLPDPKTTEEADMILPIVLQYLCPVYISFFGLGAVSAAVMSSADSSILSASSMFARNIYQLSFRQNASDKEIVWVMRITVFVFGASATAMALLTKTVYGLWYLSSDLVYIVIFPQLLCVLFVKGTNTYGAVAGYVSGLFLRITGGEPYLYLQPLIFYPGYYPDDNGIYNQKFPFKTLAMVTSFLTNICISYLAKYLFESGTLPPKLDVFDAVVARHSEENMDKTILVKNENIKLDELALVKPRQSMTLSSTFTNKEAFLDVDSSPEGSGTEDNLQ

[11] = target: Voltage-dependent T-type calcium channel subunit alpha-1H (Homo sapiens, UniProt O95180); test: human CACNA1H calcium influx blockade – cell-based, synthetic library set 2, HEK293 HH8, Fluo-4, SAR follow-up (AID 493023); type: functional
Voltage-dependent T-type calcium channel subunit alpha-1H, sequence (O95180 whole entry): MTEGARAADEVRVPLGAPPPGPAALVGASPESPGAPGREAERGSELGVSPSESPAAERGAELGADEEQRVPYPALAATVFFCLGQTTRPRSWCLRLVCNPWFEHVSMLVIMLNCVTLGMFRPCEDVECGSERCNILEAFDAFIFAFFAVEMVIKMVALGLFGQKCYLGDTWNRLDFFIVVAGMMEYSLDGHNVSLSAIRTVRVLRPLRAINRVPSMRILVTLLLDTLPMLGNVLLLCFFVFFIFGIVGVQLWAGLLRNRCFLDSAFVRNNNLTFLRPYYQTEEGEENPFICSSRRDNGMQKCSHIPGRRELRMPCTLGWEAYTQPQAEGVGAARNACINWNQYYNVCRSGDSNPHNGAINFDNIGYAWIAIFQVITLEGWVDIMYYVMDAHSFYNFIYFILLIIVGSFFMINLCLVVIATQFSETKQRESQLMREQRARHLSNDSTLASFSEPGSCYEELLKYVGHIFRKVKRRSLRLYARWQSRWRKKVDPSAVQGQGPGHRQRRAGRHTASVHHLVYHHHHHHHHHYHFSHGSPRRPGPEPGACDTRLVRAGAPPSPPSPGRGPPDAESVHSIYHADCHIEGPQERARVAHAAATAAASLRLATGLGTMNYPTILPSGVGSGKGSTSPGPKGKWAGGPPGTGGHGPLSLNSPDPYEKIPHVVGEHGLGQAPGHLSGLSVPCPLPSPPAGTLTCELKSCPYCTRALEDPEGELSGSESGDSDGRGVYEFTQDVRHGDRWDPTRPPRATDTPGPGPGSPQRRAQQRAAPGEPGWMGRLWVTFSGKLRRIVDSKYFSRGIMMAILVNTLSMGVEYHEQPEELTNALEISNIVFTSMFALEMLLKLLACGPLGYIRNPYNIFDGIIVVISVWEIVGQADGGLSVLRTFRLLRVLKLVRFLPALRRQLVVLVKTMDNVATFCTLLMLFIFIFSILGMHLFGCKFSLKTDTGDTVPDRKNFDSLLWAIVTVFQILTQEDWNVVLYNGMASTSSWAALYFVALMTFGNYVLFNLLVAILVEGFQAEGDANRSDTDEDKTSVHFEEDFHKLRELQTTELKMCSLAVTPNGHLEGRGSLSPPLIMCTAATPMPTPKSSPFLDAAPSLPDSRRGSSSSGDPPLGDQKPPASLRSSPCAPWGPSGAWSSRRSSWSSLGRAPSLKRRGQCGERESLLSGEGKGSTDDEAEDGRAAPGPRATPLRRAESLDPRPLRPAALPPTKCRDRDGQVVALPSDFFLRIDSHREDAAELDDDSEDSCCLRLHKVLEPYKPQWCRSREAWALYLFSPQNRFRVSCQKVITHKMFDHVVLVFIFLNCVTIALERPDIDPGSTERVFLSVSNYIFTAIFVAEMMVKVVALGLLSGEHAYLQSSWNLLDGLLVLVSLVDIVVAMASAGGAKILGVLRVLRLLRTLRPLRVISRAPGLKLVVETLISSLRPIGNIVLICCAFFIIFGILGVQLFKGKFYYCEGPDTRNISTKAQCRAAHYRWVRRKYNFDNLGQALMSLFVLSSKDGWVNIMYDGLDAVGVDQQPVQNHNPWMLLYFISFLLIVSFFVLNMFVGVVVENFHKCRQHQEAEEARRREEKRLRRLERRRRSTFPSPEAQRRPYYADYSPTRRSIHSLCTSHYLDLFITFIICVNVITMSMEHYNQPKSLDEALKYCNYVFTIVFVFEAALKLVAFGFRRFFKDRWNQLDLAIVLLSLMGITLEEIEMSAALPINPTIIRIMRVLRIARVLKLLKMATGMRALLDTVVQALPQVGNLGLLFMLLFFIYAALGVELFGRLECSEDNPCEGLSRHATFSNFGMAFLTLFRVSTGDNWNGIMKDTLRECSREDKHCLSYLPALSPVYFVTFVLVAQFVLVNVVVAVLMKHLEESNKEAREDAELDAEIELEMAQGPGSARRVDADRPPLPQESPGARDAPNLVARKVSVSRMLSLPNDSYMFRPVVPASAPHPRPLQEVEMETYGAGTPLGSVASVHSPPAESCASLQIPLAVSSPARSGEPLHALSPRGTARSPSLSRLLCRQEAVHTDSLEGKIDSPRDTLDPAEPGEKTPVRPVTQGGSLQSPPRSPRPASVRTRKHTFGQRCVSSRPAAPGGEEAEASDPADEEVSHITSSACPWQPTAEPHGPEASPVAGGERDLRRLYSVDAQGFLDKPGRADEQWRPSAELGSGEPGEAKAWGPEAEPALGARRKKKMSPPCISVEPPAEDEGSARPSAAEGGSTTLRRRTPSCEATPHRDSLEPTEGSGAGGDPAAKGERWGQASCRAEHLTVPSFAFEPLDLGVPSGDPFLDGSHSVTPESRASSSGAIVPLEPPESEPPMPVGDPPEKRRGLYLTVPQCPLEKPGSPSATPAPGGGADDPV

Bcl-2-related protein A1, sequence (Q07440 whole entry): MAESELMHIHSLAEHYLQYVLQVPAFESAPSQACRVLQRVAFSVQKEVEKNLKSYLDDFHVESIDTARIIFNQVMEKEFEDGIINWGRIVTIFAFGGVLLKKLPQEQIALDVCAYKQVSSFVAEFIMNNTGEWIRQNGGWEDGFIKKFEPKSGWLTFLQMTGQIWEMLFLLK
Intestinal-type alkaline phosphatase (Homo sapiens, UniProt P09923), sequence (P09923 whole entry): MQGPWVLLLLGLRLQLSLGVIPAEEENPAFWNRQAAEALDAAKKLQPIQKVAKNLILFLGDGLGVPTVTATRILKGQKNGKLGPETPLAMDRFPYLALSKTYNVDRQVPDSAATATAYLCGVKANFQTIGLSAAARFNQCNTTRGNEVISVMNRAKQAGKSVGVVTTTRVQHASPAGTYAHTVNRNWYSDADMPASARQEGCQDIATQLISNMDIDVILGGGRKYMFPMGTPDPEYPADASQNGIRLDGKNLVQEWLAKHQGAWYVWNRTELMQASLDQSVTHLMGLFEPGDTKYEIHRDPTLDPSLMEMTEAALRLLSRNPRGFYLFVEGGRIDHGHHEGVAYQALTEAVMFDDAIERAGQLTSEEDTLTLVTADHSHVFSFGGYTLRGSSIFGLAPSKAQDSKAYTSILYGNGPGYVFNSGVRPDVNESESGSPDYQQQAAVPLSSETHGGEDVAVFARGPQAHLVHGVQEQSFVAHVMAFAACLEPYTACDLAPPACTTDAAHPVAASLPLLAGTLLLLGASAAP
Intestinal-type alkaline phosphatase (Mus musculus, UniProt P24822), sequence (P24822 whole entry): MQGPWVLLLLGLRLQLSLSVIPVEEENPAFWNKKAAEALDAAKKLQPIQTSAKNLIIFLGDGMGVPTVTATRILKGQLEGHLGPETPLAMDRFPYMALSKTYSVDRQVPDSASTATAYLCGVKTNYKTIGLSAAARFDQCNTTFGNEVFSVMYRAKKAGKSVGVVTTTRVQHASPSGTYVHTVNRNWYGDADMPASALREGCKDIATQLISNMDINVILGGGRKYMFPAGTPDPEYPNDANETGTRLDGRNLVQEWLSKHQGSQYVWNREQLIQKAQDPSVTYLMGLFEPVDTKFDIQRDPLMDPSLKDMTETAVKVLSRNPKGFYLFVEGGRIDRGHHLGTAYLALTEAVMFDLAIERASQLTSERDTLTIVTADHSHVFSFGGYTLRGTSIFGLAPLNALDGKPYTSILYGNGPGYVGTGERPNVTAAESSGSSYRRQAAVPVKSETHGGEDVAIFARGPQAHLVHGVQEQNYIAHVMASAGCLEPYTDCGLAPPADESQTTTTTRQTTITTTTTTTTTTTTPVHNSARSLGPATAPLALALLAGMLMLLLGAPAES

Which results are given for `COc1ccc(OC)c(S(=O)(=O)Nc2ccc(O)c(Sc3nc[nH]n3)c2)c1`?
EC50 [1]: 66.9 µM (active); IC50 [2]: 13.1 µM (active); EC50 [3]: 11.5 µM (active); EC50 [4]: 74.7 µM (active); EC50 [5]: 62.1 µM (active); EC50 [6]: 17.7 µM (inconclusive)

For `COc1ccc(C(CNC(=O)c2cccc(NS(=O)(=O)c3ccc(C)c(F)c3)c2)N2CCCC2)cc1` (stereo not drawn), which IC50 (Bcl-2-related protein A1) is on record?
Its IC50 is > 20 µM (inactive).

What about the IC50 (cells) of the same compound?
Its IC50 is 38 µM (active).

What about the CC50 [7] of the same compound?
The CC50 was > 40 µM (active).

And the IC50 [8]?
The IC50 was 15.3 µM (active).

What about the IC50 [9] of the same compound?
Its IC50 is 11.7 µM (active).

What about the IC50 [10] of the same compound?
The IC50 was 15.8 µM (active).

For `CC(C)(C)CCN1CC2CCC(NC(=O)c3ccc(Cl)cc3Cl)C2C1` (stereo not drawn), which EC50 [11] is on record?
The EC50 was 0.36 µM (active).
